The NIST ThermoML archive (doi:10.1016/j.tca.2015.06.017)

Test: xn = mol fraction of the nth substance listed
Conditions: Liquid, Vibrating tube method

CCCCCl [1-chlorobutane] + CCCCCCC
mass density [kg/m3]
Conditions | 283.15 K | 293.15 K | 298.15 K
100 kPa, x2 = 0.0508 | 882.75 | 871.93 | 866.47
100 kPa, x2 = 0.0994 | 869.33 | 858.68 | 853.29
100 kPa, x2 = 0.2013 | 842.84 | 832.5 | 827.27
100 kPa, x2 = 0.3015 | 818.82 | 808.71 | 803.67
100 kPa, x2 = 0.4008 | 796.7 | 786.9 | 781.96
100 kPa, x2 = 0.5026 | 775.72 | 766.2 | 761.38
100 kPa, x2 = 0.6012 | 756.89 | 747.61 | 742.88
100 kPa, x2 = 0.7003 | 739.21 | 730.17 | 725.57
100 kPa, x2 = 0.7995 | 722.69 | 713.87 | 709.43
100 kPa, x2 = 0.9011 | 706.94 | 698.34 | 694
100 kPa, x2 = 0.9494 | 699.8 | 691.32 | 687.02
2000 kPa, x2 = 0.0508 | 884.62 | 873.92 | 868.56
2000 kPa, x2 = 0.0994 | 871.23 | 860.68 | 855.4
2000 kPa, x2 = 0.2013 | 844.73 | 834.49 | 829.39
2000 kPa, x2 = 0.3015 | 820.72 | 810.76 | 805.75
2000 kPa, x2 = 0.4008 | 798.63 | 788.97 | 784.08
2000 kPa, x2 = 0.5026 | 777.65 | 768.2 | 763.54
2000 kPa, x2 = 0.6012 | 758.81 | 749.57 | 745
2000 kPa, x2 = 0.7003 | 741.14 | 732.18 | 727.68
2000 kPa, x2 = 0.7995 | 724.62 | 715.87 | 711.52
2000 kPa, x2 = 0.9011 | 708.86 | 700.31 | 696.1
2000 kPa, x2 = 0.9494 | 701.72 | 693.28 | 689.1
5000 kPa, x2 = 0.0508 | 887.46 | 876.95 | 871.65
5000 kPa, x2 = 0.0994 | 874.03 | 863.68 | 858.46
5000 kPa, x2 = 0.2013 | 847.53 | 837.52 | 832.44
5000 kPa, x2 = 0.3015 | 823.49 | 813.71 | 808.8
5000 kPa, x2 = 0.4008 | 801.35 | 791.93 | 787.1
5000 kPa, x2 = 0.5026 | 780.38 | 771.16 | 766.44
5000 kPa, x2 = 0.6012 | 761.44 | 752.54 | 747.93
5000 kPa, x2 = 0.7003 | 743.76 | 735.08 | 730.59
5000 kPa, x2 = 0.7995 | 727.26 | 718.74 | 714.37
5000 kPa, x2 = 0.9011 | 711.45 | 703.17 | 698.9
5000 kPa, x2 = 0.9494 | 704.3 | 696.13 | 691.9
7000 kPa, x2 = 0.0508 | 889.28 | 878.92 | 873.68
7000 kPa, x2 = 0.0994 | 875.85 | 865.65 | 860.48
7000 kPa, x2 = 0.2013 | 849.37 | 839.47 | 834.46
7000 kPa, x2 = 0.3015 | 825.31 | 815.63 | 810.76
7000 kPa, x2 = 0.4008 | 803.16 | 793.83 | 789.09
7000 kPa, x2 = 0.5026 | 782.19 | 773.03 | 768.42
7000 kPa, x2 = 0.6012 | 763.28 | 754.35 | 749.89
7000 kPa, x2 = 0.7003 | 745.54 | 736.9 | 732.52
7000 kPa, x2 = 0.7995 | 729.04 | 720.57 | 716.31
7000 kPa, x2 = 0.9011 | 713.2 | 704.95 | 700.8
7000 kPa, x2 = 0.9494 | 706.05 | 697.9 | 693.79
10000 kPa, x2 = 0.0508 | 891.99 | 881.85 | 876.62
10000 kPa, x2 = 0.0994 | 878.55 | 868.56 | 863.41
10000 kPa, x2 = 0.2013 | 852.02 | 842.33 | 837.33
10000 kPa, x2 = 0.3015 | 827.93 | 818.52 | 813.6
10000 kPa, x2 = 0.4008 | 805.75 | 796.66 | 791.87
10000 kPa, x2 = 0.5026 | 784.72 | 775.83 | 771.16
10000 kPa, x2 = 0.6012 | 765.77 | 757.17 | 752.57
10000 kPa, x2 = 0.7003 | 748.04 | 739.62 | 735.16
10000 kPa, x2 = 0.7995 | 731.51 | 723.28 | 718.95
10000 kPa, x2 = 0.9011 | 715.65 | 707.66 | 703.38
10000 kPa, x2 = 0.9494 | 708.47 | 700.58 | 696.37
20000 kPa, x2 = 0.0508 | 900.53 | 890.77 | 885.92
20000 kPa, x2 = 0.0994 | 887.08 | 877.47 | 872.69
20000 kPa, x2 = 0.2013 | 860.48 | 851.18 | 846.51
20000 kPa, x2 = 0.3015 | 836.34 | 827.25 | 822.71
20000 kPa, x2 = 0.4008 | 814.1 | 805.35 | 800.83
20000 kPa, x2 = 0.5026 | 793.03 | 784.43 | 780.1
20000 kPa, x2 = 0.6012 | 773.97 | 765.68 | 761.37
20000 kPa, x2 = 0.7003 | 756.2 | 748.06 | 743.91
20000 kPa, x2 = 0.7995 | 739.54 | 731.66 | 727.56
20000 kPa, x2 = 0.9011 | 723.61 | 715.92 | 711.9
20000 kPa, x2 = 0.9494 | 716.4 | 708.79 | 704.84
30000 kPa, x2 = 0.0508 | 908.4 | 899 | 894.38
30000 kPa, x2 = 0.0994 | 894.89 | 885.66 | 881.09
30000 kPa, x2 = 0.2013 | 868.22 | 859.31 | 854.8
30000 kPa, x2 = 0.3015 | 843.95 | 835.33 | 830.93
30000 kPa, x2 = 0.4008 | 821.67 | 813.25 | 808.96
30000 kPa, x2 = 0.5026 | 800.5 | 792.34 | 788.14
30000 kPa, x2 = 0.6012 | 781.4 | 773.46 | 769.31
30000 kPa, x2 = 0.7003 | 763.51 | 755.75 | 751.75
30000 kPa, x2 = 0.7995 | 746.78 | 739.24 | 735.28
30000 kPa, x2 = 0.9011 | 730.75 | 723.44 | 719.55
30000 kPa, x2 = 0.9494 | 723.48 | 716.27 | 712.41
40000 kPa, x2 = 0.0508 | 915.72 | 906.7 | 902.26
40000 kPa, x2 = 0.0994 | 902.19 | 893.3 | 888.92
40000 kPa, x2 = 0.2013 | 875.41 | 866.83 | 862.54
40000 kPa, x2 = 0.3015 | 851.07 | 842.76 | 838.54
40000 kPa, x2 = 0.4008 | 828.73 | 820.58 | 816.49
40000 kPa, x2 = 0.5026 | 807.4 | 799.52 | 795.57
40000 kPa, x2 = 0.6012 | 788.26 | 780.6 | 776.69
40000 kPa, x2 = 0.7003 | 770.26 | 762.81 | 759
40000 kPa, x2 = 0.7995 | 753.48 | 746.17 | 742.45
40000 kPa, x2 = 0.9011 | 737.36 | 730.25 | 726.58
40000 kPa, x2 = 0.9494 | 730.05 | 723.03 | 719.41
50000 kPa, x2 = 0.0508 | 922.47 | 913.76 | 909.49
50000 kPa, x2 = 0.0994 | 908.9 | 900.34 | 896.12
50000 kPa, x2 = 0.2013 | 882.07 | 873.81 | 869.69
50000 kPa, x2 = 0.3015 | 857.66 | 849.63 | 845.59
50000 kPa, x2 = 0.4008 | 835.21 | 827.43 | 823.5
50000 kPa, x2 = 0.5026 | 813.85 | 806.3 | 802.4
50000 kPa, x2 = 0.6012 | 794.6 | 787.26 | 783.45
50000 kPa, x2 = 0.7003 | 776.55 | 769.39 | 765.7
50000 kPa, x2 = 0.7995 | 759.63 | 752.7 | 749.08
50000 kPa, x2 = 0.9011 | 743.44 | 736.68 | 733.13
50000 kPa, x2 = 0.9494 | 736.1 | 729.41 | 725.89
60000 kPa, x2 = 0.0508 | 928.92 | 920.42 | 916.33
60000 kPa, x2 = 0.0994 | 915.32 | 906.99 | 902.96
60000 kPa, x2 = 0.2013 | 888.42 | 880.39 | 876.46
60000 kPa, x2 = 0.3015 | 863.89 | 856.15 | 852.33
60000 kPa, x2 = 0.4008 | 841.39 | 833.88 | 830.1
60000 kPa, x2 = 0.5026 | 819.91 | 812.63 | 809.01
60000 kPa, x2 = 0.6012 | 800.58 | 793.52 | 790
60000 kPa, x2 = 0.7003 | 782.47 | 775.64 | 772.14
60000 kPa, x2 = 0.7995 | 765.51 | 758.87 | 755.42
60000 kPa, x2 = 0.9011 | 749.23 | 742.77 | 739.4
60000 kPa, x2 = 0.9494 | 741.85 | 735.46 | 732.12
65000 kPa, x2 = 0.0508 | 931.98 | 923.76 | 919.61
65000 kPa, x2 = 0.0994 | 918.36 | 910.28 | 906.21
65000 kPa, x2 = 0.2013 | 891.39 | 883.59 | 879.69
65000 kPa, x2 = 0.3015 | 866.87 | 859.28 | 855.51
65000 kPa, x2 = 0.4008 | 844.29 | 836.95 | 833.25
65000 kPa, x2 = 0.5026 | 822.81 | 815.67 | 812.1
65000 kPa, x2 = 0.6012 | 803.45 | 796.5 | 793.04
65000 kPa, x2 = 0.7003 | 785.25 | 778.5 | 775.16
65000 kPa, x2 = 0.7995 | 768.28 | 761.67 | 758.43
65000 kPa, x2 = 0.9011 | 751.95 | 745.52 | 742.37
65000 kPa, x2 = 0.9494 | 744.53 | 738.19 | 735.07
